Assay: Inhibition of P-gp in human K562/A02 cells over expressing P-gp assessed as reversal of multi-drug resistance by measuring ADR IC50 measured after 72 hrs by CCK-8 assay

| Structure (SMILES) | IC50 [nM] |
| --- | --- |
| COc1ccc(C(=O)Nc2ccccc2/N=N/c2ccc(CCN3CCc4cc(OC)c(OC)cc4C3)cc2)cc1OC | 35 |
| COc1cc2c(cc1OC)CN(CCc1ccc(/N=N/c3ccccc3NC(=O)c3ccc(C)c(C)c3)cc1)CC2 | 168 |
| COc1cc2c(cc1OC)CN(CCc1ccc(/N=N/c3ccccc3NC(=O)c3ccc(F)c(F)c3)cc1)CC2 | 108 |
| COc1cc2c(cc1OC)CN(CCc1ccc(/N=N/c3ccccc3NC(=O)c3cc(OC)c(OC)c(OC)c3)cc1)CC2 | 1290 |
| COc1cccc(C(=O)Nc2ccccc2/N=N/c2ccc(CCN3CCc4cc(OC)c(OC)cc4C3)cc2)c1 | 68 |
| COc1ccc(C(=O)Nc2ccccc2/N=N/c2ccc(CCN3CCc4cc(OC)c(OC)cc4C3)cc2)cc1 | 88 |
| COc1cc2c(cc1OC)CN(CCc1ccc(/N=N/c3ccccc3NC(=O)c3ccc(C)cc3)cc1)CC2 | 44 |
| COc1cc2c(cc1OC)CN(CCc1ccc(/N=N/c3ccccc3NC(=O)c3ccc([N+](=O)[O-])cc3)cc1)CC2 | 120 |
| COc1cc2c(cc1OC)CN(CCc1ccc(/N=N/c3ccccc3NC(=O)c3cccc([N+](=O)[O-])c3)cc1)CC2 | 50 |
| COc1cc2c(cc1OC)CN(CCc1ccc(/N=N/c3ccccc3NC(=O)c3ccc(C(C)(C)C)cc3)cc1)CC2 | 105 |
| COc1ccccc1/N=N/c1ccccc1C(=O)Nc1ccc(CCN2CCc3cc(OC)c(OC)cc3C2)cc1 | 275 |
| COc1cc2c(cc1OC)CN(CCc1ccc(NC(=O)c3ccccc3/N=N/c3cccc(Cl)c3)cc1)CC2 | 84 |
| COc1cc2c(cc1OC)CN(CCc1ccc(NC(=O)c3ccccc3/N=N/c3ccc(Cl)cc3)cc1)CC2 | 82 |
| COc1cc2c(cc1OC)CN(CCc1ccc(NC(=O)c3ccccc3/N=N/c3ccc(C)cc3)cc1)CC2 | 68 |
| COc1ccc(C(=O)Nc2ccccc2C(=O)Nc2ccc(CCN3CCc4cc(OC)c(OC)cc4C3)cc2)cc1OC [N-(2-(4-(2-(6,7-dimethoxy-3,4-dihydroisoquinolin-2(1H)-yl)ethyl)phenylcarbamoyl)phenyl)-3,4-dimethoxybenzamide] | 34 |

Next, values leading:

| IC50 [nM] | Structure (SMILES) |
| --- | --- |
| 1600 | COc1cc2c(cc1OC)CN(CCc1ccc(/N=N/c3ccccc3NC(=O)c3ccc(Cl)c(Cl)c3)cc1)CC2 |
| 70 | COc1cc2c(cc1OC)CN(CCc1ccc(/N=N/c3ccccc3NC(=O)c3ccccc3)cc1)CC2 |
| 15 | COc1cc2c(cc1OC)CN(CCc1ccc(/N=N/c3ccccc3NC(=O)c3ccccc3OC)cc1)CC2 |
| 20 | COc1cc2c(cc1OC)CN(CCc1ccc(/N=N/c3ccccc3NC(=O)c3ccccc3[N+](=O)[O-])cc1)CC2 |
| 32 | COc1cc2c(cc1OC)CN(CCc1ccc(/N=N/c3ccccc3NC(=O)c3ccccc3Cl)cc1)CC2 |
| 83 | COc1cc2c(cc1OC)CN(CCc1ccc(/N=N/c3ccccc3NC(=O)c3ccc(Cl)cc3)cc1)CC2 |
| 43 | COc1cc2c(cc1OC)CN(CCc1ccc(/N=N/c3ccccc3NC(=O)c3cccc(Cl)c3)cc1)CC2 |
| 92 | COc1cc2c(cc1OC)CN(CCc1ccc(NC(=O)c3ccccc3/N=N/c3ccccc3)cc1)CC2 |

— BindingDB's records for PubMed 39369480 (Xuzhou Medical University)
